Experimental data reported in ChEMBL document CHEMBL4507268 (2021).

Legend:
[1] = target: Casein kinase I isoform alpha-like (Homo sapiens) (UniProt Q8N752); settings: Compound concentration 1000.0 nM
[2] = target: Cyclin-dependent kinase 17 (Homo sapiens) (UniProt Q00537); settings: Compound concentration 1000.0 nM
[3] = target: Calcium/calmodulin-dependent protein kinase type II subunit delta (Homo sapiens) (UniProt Q13557); settings: Compound concentration 1000.0 nM
[4] = target: T1, Myosin light chain kinase (Homo sapiens) (UniProt Q32MK0); settings: Compound concentration 1000.0 nM
T1 sequence (whole entry): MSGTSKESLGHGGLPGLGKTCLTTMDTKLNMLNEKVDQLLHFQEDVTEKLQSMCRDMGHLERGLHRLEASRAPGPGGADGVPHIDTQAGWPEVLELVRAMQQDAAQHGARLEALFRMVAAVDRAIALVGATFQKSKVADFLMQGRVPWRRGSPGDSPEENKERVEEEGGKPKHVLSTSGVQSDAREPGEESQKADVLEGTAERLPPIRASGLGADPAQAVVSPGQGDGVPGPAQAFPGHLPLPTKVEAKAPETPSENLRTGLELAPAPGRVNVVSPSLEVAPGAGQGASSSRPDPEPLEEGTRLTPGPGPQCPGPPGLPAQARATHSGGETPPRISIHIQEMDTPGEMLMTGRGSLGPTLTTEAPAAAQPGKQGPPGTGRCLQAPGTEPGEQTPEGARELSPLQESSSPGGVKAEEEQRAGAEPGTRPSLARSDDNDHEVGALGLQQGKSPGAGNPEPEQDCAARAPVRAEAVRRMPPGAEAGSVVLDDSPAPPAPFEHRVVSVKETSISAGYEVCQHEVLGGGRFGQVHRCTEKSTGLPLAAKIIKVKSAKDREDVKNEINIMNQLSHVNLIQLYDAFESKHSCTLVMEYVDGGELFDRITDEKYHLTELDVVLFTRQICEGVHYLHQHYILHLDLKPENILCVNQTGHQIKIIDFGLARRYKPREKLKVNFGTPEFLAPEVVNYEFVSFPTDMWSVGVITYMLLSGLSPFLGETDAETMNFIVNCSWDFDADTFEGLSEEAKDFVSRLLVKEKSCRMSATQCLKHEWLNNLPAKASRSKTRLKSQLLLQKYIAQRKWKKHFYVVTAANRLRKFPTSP

[5] = target: Muscarinic acetylcholine receptor M2 (Homo sapiens) (UniProt P08172); settings: Compound concentration 10.0 uM
Sequence of Muscarinic acetylcholine receptor M2 (Homo sapiens) (P08172 whole entry): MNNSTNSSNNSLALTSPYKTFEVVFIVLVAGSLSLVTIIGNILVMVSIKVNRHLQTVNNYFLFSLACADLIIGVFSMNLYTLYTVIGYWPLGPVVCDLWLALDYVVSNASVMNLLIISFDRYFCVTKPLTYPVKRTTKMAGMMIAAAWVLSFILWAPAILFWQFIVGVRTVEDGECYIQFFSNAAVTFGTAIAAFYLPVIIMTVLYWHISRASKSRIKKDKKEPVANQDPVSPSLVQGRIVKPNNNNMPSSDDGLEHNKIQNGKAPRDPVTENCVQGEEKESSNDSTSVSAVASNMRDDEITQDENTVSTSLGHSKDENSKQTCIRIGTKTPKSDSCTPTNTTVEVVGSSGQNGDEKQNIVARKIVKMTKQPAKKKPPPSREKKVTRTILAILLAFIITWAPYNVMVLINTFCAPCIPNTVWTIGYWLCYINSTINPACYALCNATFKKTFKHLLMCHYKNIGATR

[6] = target: T2, Mitogen-activated protein kinase kinase kinase 3 (Homo sapiens) (UniProt Q99759); settings: Compound concentration 1000.0 nM
T2 sequence (whole entry): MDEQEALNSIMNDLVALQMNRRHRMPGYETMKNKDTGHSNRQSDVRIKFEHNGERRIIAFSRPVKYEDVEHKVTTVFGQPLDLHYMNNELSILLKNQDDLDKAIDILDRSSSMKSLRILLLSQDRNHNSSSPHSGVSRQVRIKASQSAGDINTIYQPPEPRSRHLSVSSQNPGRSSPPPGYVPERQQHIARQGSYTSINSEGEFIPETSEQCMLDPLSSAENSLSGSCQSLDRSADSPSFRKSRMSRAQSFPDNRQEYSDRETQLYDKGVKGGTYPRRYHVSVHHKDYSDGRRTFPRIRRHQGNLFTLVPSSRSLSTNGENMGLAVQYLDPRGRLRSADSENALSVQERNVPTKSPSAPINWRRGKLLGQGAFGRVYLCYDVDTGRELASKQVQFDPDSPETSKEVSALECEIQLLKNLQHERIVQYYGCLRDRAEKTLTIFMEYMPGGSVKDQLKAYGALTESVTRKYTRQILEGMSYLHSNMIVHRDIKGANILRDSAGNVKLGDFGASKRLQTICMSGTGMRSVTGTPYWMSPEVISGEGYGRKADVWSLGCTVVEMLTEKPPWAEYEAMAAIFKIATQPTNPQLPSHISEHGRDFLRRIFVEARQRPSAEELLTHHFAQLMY

[7] = target: 5-hydroxytryptamine receptor 1A (Homo sapiens) (UniProt P08908); settings: Compound concentration 10.0 uM
Sequence of 5-hydroxytryptamine receptor 1A (Homo sapiens) (P08908 whole entry): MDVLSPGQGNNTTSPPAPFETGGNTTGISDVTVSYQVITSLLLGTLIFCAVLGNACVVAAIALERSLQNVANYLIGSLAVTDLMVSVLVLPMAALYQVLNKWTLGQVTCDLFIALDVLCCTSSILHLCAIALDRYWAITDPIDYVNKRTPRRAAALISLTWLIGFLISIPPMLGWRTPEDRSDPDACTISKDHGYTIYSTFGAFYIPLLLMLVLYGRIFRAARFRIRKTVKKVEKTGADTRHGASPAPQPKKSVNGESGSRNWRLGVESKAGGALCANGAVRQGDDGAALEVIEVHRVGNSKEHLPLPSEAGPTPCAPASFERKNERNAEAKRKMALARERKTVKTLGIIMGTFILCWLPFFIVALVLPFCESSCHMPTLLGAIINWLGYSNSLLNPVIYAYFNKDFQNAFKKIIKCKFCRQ

[8] = target: BMP-2-inducible protein kinase (Homo sapiens) (UniProt Q9NSY1); settings: Compound concentration 1000.0 nM
Sequence of BMP-2-inducible protein kinase (Homo sapiens) (Q9NSY1 whole entry, looked up): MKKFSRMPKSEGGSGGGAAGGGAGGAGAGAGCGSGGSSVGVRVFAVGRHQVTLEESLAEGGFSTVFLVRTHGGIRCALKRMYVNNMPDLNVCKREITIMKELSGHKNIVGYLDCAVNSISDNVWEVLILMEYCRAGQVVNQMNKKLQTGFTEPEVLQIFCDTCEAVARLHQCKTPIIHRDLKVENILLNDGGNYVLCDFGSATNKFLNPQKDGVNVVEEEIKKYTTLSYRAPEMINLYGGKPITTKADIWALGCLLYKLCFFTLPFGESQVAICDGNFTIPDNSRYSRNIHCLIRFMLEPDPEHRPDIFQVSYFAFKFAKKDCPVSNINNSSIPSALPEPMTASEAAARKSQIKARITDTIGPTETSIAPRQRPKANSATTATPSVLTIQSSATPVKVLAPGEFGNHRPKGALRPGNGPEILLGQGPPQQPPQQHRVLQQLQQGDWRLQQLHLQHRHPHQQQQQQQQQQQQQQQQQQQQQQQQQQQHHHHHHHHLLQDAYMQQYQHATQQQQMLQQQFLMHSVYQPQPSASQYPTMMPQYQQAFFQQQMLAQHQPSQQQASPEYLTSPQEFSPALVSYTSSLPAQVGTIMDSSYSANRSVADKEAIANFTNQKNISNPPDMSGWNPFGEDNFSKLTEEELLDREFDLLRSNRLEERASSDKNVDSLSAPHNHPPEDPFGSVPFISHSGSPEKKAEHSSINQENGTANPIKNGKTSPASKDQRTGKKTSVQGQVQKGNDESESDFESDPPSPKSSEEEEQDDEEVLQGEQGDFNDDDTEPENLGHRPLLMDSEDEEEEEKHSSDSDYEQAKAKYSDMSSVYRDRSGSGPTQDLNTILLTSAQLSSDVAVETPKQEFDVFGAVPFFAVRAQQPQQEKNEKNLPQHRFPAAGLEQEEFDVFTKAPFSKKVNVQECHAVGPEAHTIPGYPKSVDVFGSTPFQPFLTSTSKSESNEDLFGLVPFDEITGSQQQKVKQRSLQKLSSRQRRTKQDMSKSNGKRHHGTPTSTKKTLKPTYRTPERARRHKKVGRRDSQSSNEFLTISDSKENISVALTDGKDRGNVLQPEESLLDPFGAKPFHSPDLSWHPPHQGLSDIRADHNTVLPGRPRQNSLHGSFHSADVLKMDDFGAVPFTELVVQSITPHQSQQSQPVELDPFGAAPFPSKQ

[9] = target: Tyrosine-protein kinase Fgr (Homo sapiens) (UniProt P09769); settings: Compound concentration 1000.0 nM
[10] = target: T3, Aurora kinase C (Homo sapiens) (UniProt Q9UQB9); settings: Compound concentration 1000.0 nM
T3 sequence (whole entry): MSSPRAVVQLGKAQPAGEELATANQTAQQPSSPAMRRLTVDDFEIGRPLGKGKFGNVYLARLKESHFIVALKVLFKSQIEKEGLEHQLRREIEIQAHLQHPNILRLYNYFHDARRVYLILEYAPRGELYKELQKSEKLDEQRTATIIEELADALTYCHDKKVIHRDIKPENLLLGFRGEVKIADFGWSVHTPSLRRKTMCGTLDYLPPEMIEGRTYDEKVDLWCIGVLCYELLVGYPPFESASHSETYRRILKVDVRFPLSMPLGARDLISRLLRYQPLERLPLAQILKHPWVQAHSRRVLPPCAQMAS

[11] = target: T4, Serine/threonine-protein kinase STK11 (Homo sapiens) (UniProt Q15831); settings: Compound concentration 1000.0 nM
T4 sequence (whole entry): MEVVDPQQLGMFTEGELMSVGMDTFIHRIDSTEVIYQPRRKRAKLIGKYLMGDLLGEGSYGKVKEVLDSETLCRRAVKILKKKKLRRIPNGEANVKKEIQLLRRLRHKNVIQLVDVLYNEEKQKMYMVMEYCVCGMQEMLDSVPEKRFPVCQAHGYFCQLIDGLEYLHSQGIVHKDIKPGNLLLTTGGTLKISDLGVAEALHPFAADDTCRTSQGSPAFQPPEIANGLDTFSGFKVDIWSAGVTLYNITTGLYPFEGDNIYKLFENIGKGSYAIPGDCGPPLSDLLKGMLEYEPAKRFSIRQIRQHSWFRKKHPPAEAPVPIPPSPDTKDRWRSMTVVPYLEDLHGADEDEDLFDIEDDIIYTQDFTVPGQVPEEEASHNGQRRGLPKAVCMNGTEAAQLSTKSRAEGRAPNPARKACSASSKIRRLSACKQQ

[12] = target: Phosphatidylinositol 5-phosphate 4-kinase type-2 beta (Homo sapiens) (UniProt P78356); settings: Compound concentration 1000.0 nM
Sequence of Phosphatidylinositol 5-phosphate 4-kinase type-2 beta (Homo sapiens) (P78356 whole entry): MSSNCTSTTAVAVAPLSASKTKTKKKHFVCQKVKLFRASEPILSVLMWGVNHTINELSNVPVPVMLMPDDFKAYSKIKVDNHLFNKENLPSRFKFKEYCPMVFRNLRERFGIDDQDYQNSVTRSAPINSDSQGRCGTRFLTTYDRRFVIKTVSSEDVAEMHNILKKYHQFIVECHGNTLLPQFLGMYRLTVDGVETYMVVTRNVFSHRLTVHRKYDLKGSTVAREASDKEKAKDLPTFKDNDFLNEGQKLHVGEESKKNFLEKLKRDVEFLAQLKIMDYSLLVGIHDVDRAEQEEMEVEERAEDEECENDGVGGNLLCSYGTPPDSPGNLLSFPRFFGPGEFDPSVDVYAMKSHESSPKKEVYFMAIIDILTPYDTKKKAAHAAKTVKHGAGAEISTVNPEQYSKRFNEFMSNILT

[13] = test system: Receptor-type tyrosine-protein kinase FLT3 (Homo sapiens), P36888 [UNDEFINED MUTATION]; settings: Compound concentration 1000.0 nM
[14] = target: Fibroblast growth factor receptor 3 (Homo sapiens) (UniProt P22607); settings: Compound concentration 1000.0 nM
Sequence of Fibroblast growth factor receptor 3 (Homo sapiens) (P22607 23-806 limits assumed): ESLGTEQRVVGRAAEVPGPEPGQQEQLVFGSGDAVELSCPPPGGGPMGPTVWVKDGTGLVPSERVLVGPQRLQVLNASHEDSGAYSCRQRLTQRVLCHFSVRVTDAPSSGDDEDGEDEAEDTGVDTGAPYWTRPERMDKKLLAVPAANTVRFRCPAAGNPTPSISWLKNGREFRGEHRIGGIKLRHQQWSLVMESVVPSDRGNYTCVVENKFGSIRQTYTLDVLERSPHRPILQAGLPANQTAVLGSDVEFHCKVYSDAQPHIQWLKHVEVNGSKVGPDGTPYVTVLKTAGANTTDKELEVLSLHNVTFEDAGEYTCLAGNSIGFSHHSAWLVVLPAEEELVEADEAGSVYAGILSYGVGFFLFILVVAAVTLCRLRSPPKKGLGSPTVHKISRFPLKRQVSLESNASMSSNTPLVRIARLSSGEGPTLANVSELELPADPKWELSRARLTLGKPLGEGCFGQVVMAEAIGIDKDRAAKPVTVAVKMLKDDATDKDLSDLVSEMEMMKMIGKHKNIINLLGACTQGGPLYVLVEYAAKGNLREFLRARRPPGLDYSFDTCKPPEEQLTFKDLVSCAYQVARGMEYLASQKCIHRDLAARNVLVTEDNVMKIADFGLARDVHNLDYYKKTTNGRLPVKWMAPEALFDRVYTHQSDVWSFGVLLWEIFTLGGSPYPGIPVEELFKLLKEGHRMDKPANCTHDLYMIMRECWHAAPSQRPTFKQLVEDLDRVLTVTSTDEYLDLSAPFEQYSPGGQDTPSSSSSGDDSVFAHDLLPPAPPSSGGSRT

[15] = target: Ribosomal protein S6 kinase alpha-4 (Homo sapiens) (UniProt O75676); settings: Compound concentration 1000.0 nM

Sequence of Calcium/calmodulin-dependent protein kinase type II subunit delta (Homo sapiens) (Q13557 whole entry): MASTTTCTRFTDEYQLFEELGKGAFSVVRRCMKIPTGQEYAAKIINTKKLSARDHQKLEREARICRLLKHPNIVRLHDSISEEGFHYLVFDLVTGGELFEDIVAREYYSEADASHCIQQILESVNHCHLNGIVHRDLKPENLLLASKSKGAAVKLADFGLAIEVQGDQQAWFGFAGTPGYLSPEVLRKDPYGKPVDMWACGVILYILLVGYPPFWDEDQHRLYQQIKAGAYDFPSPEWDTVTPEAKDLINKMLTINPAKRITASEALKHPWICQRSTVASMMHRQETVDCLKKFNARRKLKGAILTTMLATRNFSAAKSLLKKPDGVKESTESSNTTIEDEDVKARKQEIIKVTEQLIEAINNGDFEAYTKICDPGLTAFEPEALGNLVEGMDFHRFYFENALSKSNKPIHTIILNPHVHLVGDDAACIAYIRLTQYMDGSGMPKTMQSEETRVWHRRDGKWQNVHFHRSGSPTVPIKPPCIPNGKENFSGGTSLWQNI
Sequence of Casein kinase I isoform alpha-like (Homo sapiens) (Q8N752 whole entry, canonical isoform): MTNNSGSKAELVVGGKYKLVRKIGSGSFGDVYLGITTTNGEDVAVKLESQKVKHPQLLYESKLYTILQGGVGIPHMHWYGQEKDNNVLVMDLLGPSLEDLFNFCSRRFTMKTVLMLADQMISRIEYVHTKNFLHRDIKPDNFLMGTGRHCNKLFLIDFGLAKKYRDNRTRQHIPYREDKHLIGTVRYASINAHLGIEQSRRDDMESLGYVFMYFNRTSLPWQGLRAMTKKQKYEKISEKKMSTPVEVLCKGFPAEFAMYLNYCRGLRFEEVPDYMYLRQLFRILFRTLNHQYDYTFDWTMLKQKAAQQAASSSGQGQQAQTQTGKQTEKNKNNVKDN
Sequence of Cyclin-dependent kinase 17 (Homo sapiens) (Q00537 whole entry, looked up): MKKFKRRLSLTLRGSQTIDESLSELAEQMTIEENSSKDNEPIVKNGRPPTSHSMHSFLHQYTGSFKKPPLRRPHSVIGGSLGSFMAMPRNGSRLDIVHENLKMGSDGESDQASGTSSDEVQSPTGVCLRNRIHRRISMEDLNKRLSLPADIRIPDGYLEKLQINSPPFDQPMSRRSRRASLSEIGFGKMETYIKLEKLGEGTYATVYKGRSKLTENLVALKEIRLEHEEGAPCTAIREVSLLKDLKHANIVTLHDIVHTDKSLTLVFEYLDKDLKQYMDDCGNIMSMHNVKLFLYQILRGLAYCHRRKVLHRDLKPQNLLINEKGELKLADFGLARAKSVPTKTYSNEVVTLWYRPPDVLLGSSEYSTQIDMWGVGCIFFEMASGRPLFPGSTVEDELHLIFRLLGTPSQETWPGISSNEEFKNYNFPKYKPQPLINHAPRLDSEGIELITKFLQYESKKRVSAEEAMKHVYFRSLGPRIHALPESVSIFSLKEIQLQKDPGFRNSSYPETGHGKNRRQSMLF

CN1CCN(c2cnc3c(C4CCN(C(=O)c5ccc(OC(F)(F)F)cc5N)CC4)ncnc3c2)CC1 [BAY-885]
inactive: residual activity [1] 100% | residual activity [2] 93% | residual activity [3] 100% | residual activity [4] 82% | inhibition [5] -0.56% | residual activity [6] 94% | inhibition [7] 7.38% | residual activity [8] 97% | residual activity [9] 100% | residual activity [10] 67% | residual activity [11] 100% | residual activity [12] 79% | residual activity [13] 93% | residual activity [14] 100% | residual activity [15] 100%

Cc1nc(C2CCN(C(=O)c3ccc(OC(F)(F)F)cc3N)CC2)c2ncc(N3CCN(C)CC3)cc2n1 [BAY-693]
inactive: residual activity [1] 100% | residual activity [2] 88% | residual activity [3] 100% | residual activity [4] 100% | inhibition [5] -1% | residual activity [6] 92% | inhibition [7] -3.88% | residual activity [8] 100% | residual activity [9] 100% | residual activity [10] 100% | residual activity [11] 100% | residual activity [12] 78% | residual activity [13] 86% | residual activity [14] 100% | residual activity [15] 100%
